Results taken from PMC5206724, “Insensitivity to pain induced by a potent selective closed-state Nav1.7 inhibitor” (Scientific Reports, 2017).
Like-named read-outs stand apart in the source and are kept apart here.

Tests used:
hNav1.7 [1] = molecular target: T1, hNav1.7 (Homo sapiens, UniProt Q15858); test: cell-based; details: QPatch; read-out: Fitted Emax hNav1.7
T1 construct: host or cells: HEK293

hNav1.1 [2] = molecular target: T2, hNav1.1 (Homo sapiens, UniProt P35498); test: cell-based; details: QPatch; read-out: Fitted Emax hNav1.1
hNav1.2 [3] = molecular target: T3, hNav1.2 (Homo sapiens, UniProt Q99250); test: cell-based; details: QPatch; read-out: Fitted Emax hNav1.2
hNav1.4 [4] = molecular target: T4, hNav1.4 (Homo sapiens, UniProt P35499); test: cell-based; details: QPatch; read-out: Fitted Emax hNav1.4
hNav1.6 [5] = molecular target: T5, hNav1.6 (Homo sapiens, UniProt Q9UQD0); test: cell-based; details: QPatch; read-out: Fitted Emax hNav1.6
T5 sequence (Q9UQD0 whole entry): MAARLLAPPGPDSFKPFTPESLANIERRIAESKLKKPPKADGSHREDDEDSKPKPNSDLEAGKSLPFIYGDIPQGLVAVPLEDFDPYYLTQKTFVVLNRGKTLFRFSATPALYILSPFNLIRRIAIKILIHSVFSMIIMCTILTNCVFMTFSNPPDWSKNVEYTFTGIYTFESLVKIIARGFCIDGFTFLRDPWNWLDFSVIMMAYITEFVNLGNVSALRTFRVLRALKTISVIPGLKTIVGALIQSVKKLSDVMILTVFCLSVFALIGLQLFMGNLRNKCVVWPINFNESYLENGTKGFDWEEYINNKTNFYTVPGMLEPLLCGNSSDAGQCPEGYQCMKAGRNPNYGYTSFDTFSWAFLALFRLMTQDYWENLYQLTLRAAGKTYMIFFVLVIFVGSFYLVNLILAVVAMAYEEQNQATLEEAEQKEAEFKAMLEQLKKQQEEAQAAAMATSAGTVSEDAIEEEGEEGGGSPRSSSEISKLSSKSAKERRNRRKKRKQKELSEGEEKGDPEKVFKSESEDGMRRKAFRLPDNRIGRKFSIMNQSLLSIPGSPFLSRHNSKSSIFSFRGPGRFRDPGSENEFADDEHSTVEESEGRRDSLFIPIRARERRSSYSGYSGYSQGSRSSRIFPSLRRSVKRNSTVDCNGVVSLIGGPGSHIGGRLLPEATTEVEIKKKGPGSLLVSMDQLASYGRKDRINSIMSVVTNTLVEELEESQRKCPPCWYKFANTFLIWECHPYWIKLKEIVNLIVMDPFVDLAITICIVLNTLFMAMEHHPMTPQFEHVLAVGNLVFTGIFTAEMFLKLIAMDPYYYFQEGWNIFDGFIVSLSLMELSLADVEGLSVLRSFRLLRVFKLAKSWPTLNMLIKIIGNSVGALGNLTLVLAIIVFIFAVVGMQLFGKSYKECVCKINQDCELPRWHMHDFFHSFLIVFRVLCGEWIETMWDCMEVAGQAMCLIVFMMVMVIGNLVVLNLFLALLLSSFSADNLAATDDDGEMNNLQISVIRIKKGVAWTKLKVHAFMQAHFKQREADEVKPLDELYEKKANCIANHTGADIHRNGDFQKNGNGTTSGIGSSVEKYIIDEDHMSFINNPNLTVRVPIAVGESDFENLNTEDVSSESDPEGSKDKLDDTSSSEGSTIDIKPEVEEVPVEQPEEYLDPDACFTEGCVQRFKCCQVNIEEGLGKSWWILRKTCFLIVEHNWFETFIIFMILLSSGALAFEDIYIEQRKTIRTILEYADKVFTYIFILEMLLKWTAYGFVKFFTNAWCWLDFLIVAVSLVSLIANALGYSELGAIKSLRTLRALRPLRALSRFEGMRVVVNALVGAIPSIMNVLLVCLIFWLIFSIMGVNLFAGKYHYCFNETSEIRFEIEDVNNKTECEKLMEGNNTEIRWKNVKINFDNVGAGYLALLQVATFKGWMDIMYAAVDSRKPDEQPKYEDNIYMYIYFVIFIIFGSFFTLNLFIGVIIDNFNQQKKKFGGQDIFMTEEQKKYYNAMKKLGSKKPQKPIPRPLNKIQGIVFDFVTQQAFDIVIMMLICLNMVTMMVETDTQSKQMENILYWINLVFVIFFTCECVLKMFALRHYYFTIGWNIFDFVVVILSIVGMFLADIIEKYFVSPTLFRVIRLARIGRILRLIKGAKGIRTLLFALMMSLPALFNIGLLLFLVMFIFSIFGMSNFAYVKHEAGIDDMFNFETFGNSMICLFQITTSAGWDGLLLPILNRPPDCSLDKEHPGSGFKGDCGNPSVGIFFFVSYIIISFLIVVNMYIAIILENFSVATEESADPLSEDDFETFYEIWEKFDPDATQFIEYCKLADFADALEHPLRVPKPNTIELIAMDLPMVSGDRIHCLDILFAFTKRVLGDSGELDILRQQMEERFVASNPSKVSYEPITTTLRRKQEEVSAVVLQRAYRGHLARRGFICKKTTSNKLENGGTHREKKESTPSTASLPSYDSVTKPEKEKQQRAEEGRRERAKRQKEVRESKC

hNav1.7 [6] = molecular target: T1, hNav1.7; test: cell-based; details: manual patch clamp; read-out: Fitted Emax hNav1.7
hNav1.1 [7] = molecular target: T2, hNav1.1; test: cell-based; details: manual patch clamp
hNav1.2 [8] = molecular target: T3, hNav1.2; test: cell-based; details: manual patch clamp; read-out: Fitted Emax hNav1.2
hNav1.4 [9] = molecular target: T4, hNav1.4; test: cell-based; details: manual patch clamp; read-out: Fitted Emax hNav1.4
hNav1.6 [10] = molecular target: T5, hNav1.6; test: cell-based; details: manual patch clamp
[11] = for mentation BAR (bright, alert and responsive) / normal corneal reflex / normal pinna reflex / normal placing stepping / scratching: 1.4 mg/100 μl perineural
From the text: Rats ~250–300 g were placed under Isoflurane anesthesia (4% for induction, 2% for maintenance). A single hip and proximal hind-leg area were shaved and the injection area prepped with alternating applications of chlorhexidine 2% soln. and isopropyl alcohol 70%. A pelvic notch just distal to the greater trochanter was located with palpation and a starter hole was made through the dermis using a 20G hypodermic needle. A 22G nerve stimulating injection needle (ProBloc II, cat#HN3S-40, Halyard Health) connected to a peripheral nerve stimulation device (EZstim II model ES400, Life-Tech, Inc.) was placed into the starter hole. The nerve stimulator was set to 0.7 mA and the injection needle was gently advanced in a line parallel to the femur until localized dorsal or plantar flexion of the foot was observed. Generalized muscle twitching involving primary twitching on the quadriceps muscle was considered a negative response and the needle was carefully re-positioned until the appropriate localized foot flicking was observed. […] The device was increased back to 0.2 mA and if twitching was still observed, the 100 μL injection was given.

[12] = 0.5 μg/h IT infusion; in words
Experimental: Efficacy was assessed in the hotplate and tail flick tests at various time points before pump implantation, during infusion and after discharge of the pumps.
All peptides were formulated in DPBS (no Ca^2+ and Mg^2+) and stored at 4 °C until use. For bolus administration, 10 μl of compound solution or vehicle were injected via the IT catheter followed by 10 μl saline flush. […] The osmotic pump was implanted subcutaneously above the scapula. Animals were excluded from behavioral studies if any motor dysfunction was noted following IT injection, if baseline thresholds were >90% or <10% of the cut-off value in the tail flick, hotplate and Hargreaves test, if there was significant leak (>20 μl) while injecting formalin into the paw or any malfunction of the metal bands or formalin apparatus. Intrathecal compound was administered 15 min–1 h before commencing behavioral testing. Intrathecal-cannulated rats were trained on the behavioral apparatus for at least two days before baseline withdrawal latencies were taken. All behavioral tests were conducted by an investigator blinded to group and treatment.

[13] = 0.5 μg/10 μl IT, 2 h post dose (1 h post formalin)
[14] = 2.5 μg/10 μl IT, 2 h post dose (1 h post formalin)
[15] = 2.5 μg/10 μl IT, first 2 animals not assessed

T1 sequence (Q15858 whole entry): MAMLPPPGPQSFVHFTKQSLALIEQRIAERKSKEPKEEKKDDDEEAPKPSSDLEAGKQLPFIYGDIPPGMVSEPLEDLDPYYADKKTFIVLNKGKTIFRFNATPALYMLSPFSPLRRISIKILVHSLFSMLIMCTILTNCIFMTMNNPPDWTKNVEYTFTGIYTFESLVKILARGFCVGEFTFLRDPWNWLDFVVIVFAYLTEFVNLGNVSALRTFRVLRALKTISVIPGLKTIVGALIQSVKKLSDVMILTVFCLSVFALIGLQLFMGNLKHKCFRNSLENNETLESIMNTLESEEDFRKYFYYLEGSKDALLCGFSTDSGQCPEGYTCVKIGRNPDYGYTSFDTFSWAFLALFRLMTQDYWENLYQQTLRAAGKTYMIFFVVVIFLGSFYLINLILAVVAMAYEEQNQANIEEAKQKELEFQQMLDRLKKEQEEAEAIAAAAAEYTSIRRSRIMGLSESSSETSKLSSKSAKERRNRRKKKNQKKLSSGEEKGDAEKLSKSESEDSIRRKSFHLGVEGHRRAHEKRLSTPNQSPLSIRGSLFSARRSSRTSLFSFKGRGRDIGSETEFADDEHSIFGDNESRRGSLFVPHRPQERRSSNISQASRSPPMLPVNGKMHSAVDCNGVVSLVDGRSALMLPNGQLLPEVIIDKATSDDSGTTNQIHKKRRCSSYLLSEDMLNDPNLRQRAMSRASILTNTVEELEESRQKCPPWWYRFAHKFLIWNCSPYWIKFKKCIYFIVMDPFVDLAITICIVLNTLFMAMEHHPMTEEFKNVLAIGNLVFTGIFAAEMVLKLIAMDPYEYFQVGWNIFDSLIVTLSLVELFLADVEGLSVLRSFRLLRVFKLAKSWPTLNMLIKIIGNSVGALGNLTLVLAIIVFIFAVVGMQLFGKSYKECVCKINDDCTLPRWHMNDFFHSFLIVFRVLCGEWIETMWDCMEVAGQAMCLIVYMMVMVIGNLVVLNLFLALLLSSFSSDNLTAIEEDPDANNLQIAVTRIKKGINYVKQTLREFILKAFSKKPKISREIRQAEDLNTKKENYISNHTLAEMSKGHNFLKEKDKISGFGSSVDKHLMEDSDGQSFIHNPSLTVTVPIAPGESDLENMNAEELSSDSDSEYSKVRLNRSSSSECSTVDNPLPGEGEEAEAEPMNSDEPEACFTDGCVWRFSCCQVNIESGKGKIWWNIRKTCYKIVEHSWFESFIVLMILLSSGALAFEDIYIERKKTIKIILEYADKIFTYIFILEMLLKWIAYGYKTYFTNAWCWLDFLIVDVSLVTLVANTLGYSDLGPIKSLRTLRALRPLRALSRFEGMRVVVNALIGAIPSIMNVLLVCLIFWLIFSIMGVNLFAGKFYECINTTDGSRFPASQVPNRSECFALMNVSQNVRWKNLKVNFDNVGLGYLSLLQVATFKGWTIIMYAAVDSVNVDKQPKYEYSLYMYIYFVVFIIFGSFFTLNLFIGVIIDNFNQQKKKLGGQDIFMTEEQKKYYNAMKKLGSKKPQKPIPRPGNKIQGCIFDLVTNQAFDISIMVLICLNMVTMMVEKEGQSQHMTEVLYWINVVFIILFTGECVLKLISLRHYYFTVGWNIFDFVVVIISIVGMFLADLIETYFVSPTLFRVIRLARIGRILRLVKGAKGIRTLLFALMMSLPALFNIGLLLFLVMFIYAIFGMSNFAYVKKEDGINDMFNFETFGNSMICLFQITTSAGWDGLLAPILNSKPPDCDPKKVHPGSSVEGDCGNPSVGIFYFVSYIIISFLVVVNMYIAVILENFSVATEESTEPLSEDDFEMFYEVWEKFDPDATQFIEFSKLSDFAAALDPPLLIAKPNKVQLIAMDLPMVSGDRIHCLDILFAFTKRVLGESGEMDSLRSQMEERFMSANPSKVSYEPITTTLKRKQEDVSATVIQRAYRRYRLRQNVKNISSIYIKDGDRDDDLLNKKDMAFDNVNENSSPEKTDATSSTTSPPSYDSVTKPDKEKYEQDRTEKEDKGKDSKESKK

Question: Which results are given for `CSCC[C@@H]1NC(=O)CNC(=O)[C@H](CCC(=O)O)NC(=O)[C@@H]2CSSC[C@H](NC(=O)[C@H](Cc3ccc(O)cc3)NC(=O)[C@@H]3CCCN3C(=O)CN)C(=O)N[C@@H](CCC(N)=O)C(=O)N[C@@H](CCCCN)C(=O)N[C@@H](Cc3c[nH]c4ccccc34)C(=O)N[C@@H](CCSC)C(=O)N[C@@H](CCC(N)=O)C(=O)N[C@@H]([C@@H](C)O)C(=O)N[C@H]3CSSC[C@H](NC(=O)[C@H](C(C)C)NC1=O)C(=O)N[C@@H](CCCNC(=N)N)C(=O)N[C@@H](CC(C)C)C(=O)N[C@@H](Cc1c[nH]c4ccccc14)C(=O)N[C@H](C(=O)N[C@@H](CCCCN)C(=O)N[C@@H](CCCCN)C(=O)N[C@@H](CCCCN)C(=O)N[C@@H](CC(C)C)C(=O)N[C@@H](CC(C)C)C(=O)O)CSSC[C@H](NC(=O)[C@H](CCCCN)NC(=O)[C@H](CCCNC(=N)N)NC(=O)[C@H](CCC(=O)O)NC(=O)[C@H](CO)NC(=O)[C@H](CC(=O)O)NC3=O)C(=O)N2` [JNJ63955918]?
Answer: Emax (hNav1.7 [1]): 79.1 ± 3.4%; Emax (hNav1.1 [2]): 100%; Emax (hNav1.2 [3]): 27.6 ± 7.3%; Emax (hNav1.4 [4]): 100%; Emax (hNav1.6 [5]): 100%; Emax (hNav1.7 [6]): 94.8 ± 3.3%; IC50 (hNav1.1 [7]; holding −120 mV, test −10 mV, 0.1% BSA, 22–24 °C, read-out: pIC50 hNav1.1 (converted)): 10 µM; Emax (hNav1.1 [7]; read-out: Fitted Emax hNav1.1): 100%; Emax (hNav1.2 [8]): 50 ± 18.5%; Emax (hNav1.4 [9]): 100%; IC50 (hNav1.6 [10]; holding −120 mV, test −10 mV, 0.1% BSA, 22–24 °C, read-out: pIC50 hNav1.6 (converted)): 1 µM; Emax (hNav1.6 [10]; read-out: Fitted Emax hNav1.6): 100%; scratching / behavioral abnormalities ([11]; 1.4 mg/100 μl peri-sciatic, in words): Scratching was observed in some animals but no other behavioral abnormalities were noted; mentation BAR (bright, alert and responsive) ([11]; 15 min post dose): 7/9; normal corneal reflex ([11]; 15 min post dose): 9/9; normal pinna reflex ([11]; 15 min post dose): 9/9; normal placing stepping ([11]; 15 min post dose): 9/9; scratching ([11]; 15 min post dose): 0/9; mentation BAR (bright, alert and responsive) ([11]; 30 min post dose): 4/9; normal corneal reflex ([11]; 30 min post dose): 9/9; normal pinna reflex ([11]; 30 min post dose): 9/9; normal placing stepping ([11]; 30 min post dose): 9/9; scratching ([11]; 30 min post dose): 1/9; mentation BAR (bright, alert and responsive) ([11]; 60 min post dose): 5/9; normal corneal reflex ([11]; 60 min post dose): 9/9; normal pinna reflex ([11]; 60 min post dose): 9/9; normal placing stepping ([11]; 60 min post dose): 9/9; scratching ([11]; 60 min post dose): 2/9; mentation BAR (bright, alert and responsive) ([11]; 120 min post dose): 6/9; normal corneal reflex ([11]; 120 min post dose): 9/9; normal pinna reflex ([11]; 120 min post dose): 9/9; normal placing stepping ([11]; 120 min post dose): 9/9; scratching ([11]; 120 min post dose): 2/9; mentation BAR (bright, alert and responsive) ([11]; 240 min post dose): 8/9; normal corneal reflex ([11]; 240 min post dose): 9/9; normal pinna reflex ([11]; 240 min post dose): 9/9; normal placing stepping ([11]; 240 min post dose): 9/9; scratching ([11]; 240 min post dose): 1/9; mentation BAR (bright, alert and responsive) ([11]; 24 h post dose): 9/9; normal corneal reflex ([11]; 24 h post dose): 9/9; normal pinna reflex ([11]; 24 h post dose): 9/9; normal placing stepping ([11]; 24 h post dose): 9/9; gross motor deficits ([11]; 2.5 mg/100 μl peri-sciatic, in words): absence of any gross motor deficits; tolerability, peri-sciatic ([11]; up to 2.5 mg/100 μl, in words): well tolerated; body weight gain vs vehicle [12]: gained weight at the same rate; motor or other behavioral abnormalities [12]: No motor or other behavioral abnormalities were observed; scabbing [12]: Some scabbing on the face, shoulders, hind limbs and tail; gross motor normal (0.5 μg/10 μl IT, 1 h post dose): 6/6; normal proprioception (0.5 μg/10 μl IT, 1 h post dose): 6/6; gross motor normal [13]: 6/6; normal proprioception [13]: 6/6; abrasions at euthanasia (0.5 μg/10 μl IT, first 2 animals not assessed): 0/4; gross motor normal (2.5 μg/10 μl IT, 1 h post dose): 6/6; normal proprioception (2.5 μg/10 μl IT, 1 h post dose): 6/6; gross motor normal [14]: 6/6; normal proprioception [14]: 6/6; excessive scratching leading to upper body skin abrasion (animals affected) (2.5 μg/10 μl IT, blinded repeat study): 2 of 4; abrasions at euthanasia [15]: 2/4; scratching [15]: 2/4; duration of muscle weakness (7.5 μg/10 μl IT): < 1 h; incidence of mild reversible muscle weakness (7.5 μg/10 μl IT): approximately 50%; scabbing (IT dose range finding, in words): Scabbing on face/neck/shoulders was observed in some rats; motor impairment (IT doses above 7.5 μg/10 μl, in words): Dose related motor impairment became more obvious and the duration of the effects was longer; tolerability (IT doses up to 5 μg/10 μl, in words): well tolerated with no detectable abnormal behaviors; in-vivo safety window (rat, in vivo): 7–16 fold; therapeutic margin vs ziconotide (rat, in vivo): greater than that of ziconotide; maximum tolerated dose (MTD), IT (rat, intrathecal): 5 μg/10 μl; lesions to the face and shoulders (rats, in words): often noticed
